The structures appear in SMILES notation.

The test system of the assay is Aβ42. The assay can be described thus: Aβ42 vs. Aβ total production in H4 neuroglioma cells stably expressing human APP695 (Meso Scale Discovery electrochemiluminescence assay). Conditions: the higher the ratio, the more specific the inhibition of Aβ42. The assay is classed as cell-based. The procedure:
Cells were plated out to near confluency. The compounds to be tested were received as 10 mM stocks in 100% DMSO. A dilution series was initially generated in 100% DMSO and then diluted 200-fold in cell culture media such that the tested concentration range was 30 μM to 0.1 nM and the final DMSO concentration was 0.5%. The diluted compounds were incubated with the cells for 22 hours in an incubator at 37° C. and 5% CO2. Aβ42 as well as Aβ total levels were then measured post-incubation from the supernatant of the cells. Aβ42 levels were determined using a specific electrochemiluminescence assay provided by Meso Scale Discovery (Catalog #L21CA-1) according to the manufacturer's protocol. Aβ total levels were likewise determined using a specific electrochemiluminescence assay provided by Meso Scale Discovery (Catalog #L21ZA-1) according to the manufacturer's protocol.
In order to absolutely define the described compounds as modulators of γ-Secretase as opposed to simply inhibitors of γ-Secretase, measurements of not only Aβ42 but also Aβ total are performed.
In the case of `CN1C(=O)C2CCCN2c2nc(Nc3ccc(-c4cnn(C)c4)nc3)ncc21` (stereo not shown) [Example 12-2], the “Ratio Aβ(total)/Aβ42 (Aβ total IC50/Aβ42 IC50)” value (from here on “Ratio Aβ(total)/Aβ42”) was above 5.
The result for `COc1cc(Nc2ncc3c(n2)N2CCCC2C(=O)N3C)ccc1-n1cnc(C)n1` (stereo not shown) [Example 12-1] reads above 10.
With `CCc1nc(Nc2ccc(-n3cnc(C)c3)c(OC)c2)nc2c1N(C)C(=O)C1CCCN21` (stereo not shown) [Example 6], the “Ratio Aβ(total)/Aβ42” value is 96.
The result for `CC(C)Cc1nc(Nc2ccc(-c3cnn(C)c3)cc2)nc2c1N(C)C(=O)C1CCCN21` (stereo not shown) [Example 34] reads 30; that for `CCc1nc(Nc2ccc(-n3cnc(C)c3)c(OC)c2)nc2c1N(C)C(=O)[C@]1(C)C[C@@H](OC)CN21` [Example 25], 73.
`CCc1nc(Nc2ccc(-c3ccnc(C)c3)cc2)nc2c1N(C)C(=O)C1CCCN21` (stereo not shown) [Example 8]: the “Ratio Aβ(total)/Aβ42” value worked out at 62.
Next, `CCN1C(=O)C2CCCCCN2c2nc(Nc3ccc(-n4cnc(C)c4)cc3)ncc21` (stereo not shown) [Example 5-6]: 43; `CCc1nc(Nc2ccc(-n3cnc(C)c3)c(C#N)c2)nc2c1N(C)C(=O)[C@@H]1C[C@@H](OC)CN21` [Example 15]: 36.
The result for `CCc1nc(Nc2ccc(-n3cnc(C)c3)c(OC)c2)nc2c1NC(=O)[C@@H]1C[C@@H](OC)CN21` [Example 17] reads 68; that for `CCc1nc(Nc2ccc(-n3cnc(C)c3)c(OC)c2)nc2c1N(C)C(=O)C1COCCN21` (stereo not shown) [Example 29], 76; that for `COc1cc(Nc2nc(C(C)C)c3c(n2)N2CCCC2C(=O)N3C)ccc1-n1cnc(C)c1` (stereo not shown) [Example 32], 66.
On to `CCc1nc(Nc2ccc(-c3cnc(C)o3)nc2)nc2c1N(C)C(=O)C1CCCN21` (stereo not shown) [Example 9], for which the “Ratio Aβ(total)/Aβ42” value is listed as above 24.
The result for `COc1cc(Nc2ncc3c(n2)N2CCCOC2(C)C(=O)N3C)ccc1-n1cnc(C)c1` (stereo not shown) [Example 31] reads 55.
For `CCc1nc(Nc2ccc(-n3cnc(C)c3)c(OC)c2)nc2c1NC(=O)C1COCCN21` (stereo not shown) [Example 28], the “Ratio Aβ(total)/Aβ42” value was found to be 29.
The result for `CCc1nc(Nc2ccc(-n3cnc(C)c3)c(OC)c2)nc2c1NC(=O)[C@@]1(C)[C@@H](OC)CN21` (racemic) [Example 27] reads 70.
Next, `COc1cc(Nc2ncc3c(n2)N2CCCC2C(=O)N3C)ccc1-n1cnc(C)c1` (stereo not shown) [Example 11]: above 310; `COc1cc(Nc2nc(SC)c3c(n2)N2CCCCC2C(=O)N3C)ccc1-n1cnc(C)c1` (stereo not shown) [Example 13]: 14.
The result for `COc1cc(Nc2ncc3c(n2)N2CCCC2C(=O)N3C)ccc1-n1ncnc1C` (stereo not shown) [Example 12-4] reads above 39.
As to `COc1cc(Nc2nc(C(C)C)c3c(n2)N2CCN(C(=O)OC(C)(C)C)CC2C(=O)N3C)ccc1-n1cnc(C)c1` (stereo not shown) [Example 37], the “Ratio Aβ(total)/Aβ42” value amounted to 12.
Next, `COc1cc(Nc2ncc3c(n2)N2CCCOCC2C(=O)N3)ccc1-n1cnc(C)c1` (stereo not shown) [Example 30]: 96.
Next, `CCc1nc(Nc2ccc(-n3cnc(C)c3)c(OC)c2)nc2c1N(C)C(=O)C1CCCCN21` (stereo not shown) [Example 36]: 86; `CCCN1C(=O)C2CCCCCN2c2nc(Nc3ccc(-n4cnc(C)c4)c(OC)c3)ncc21` (stereo not shown) [Example 4]: 44; `CCCN1C(=O)C2CCCCCN2c2nc(Nc3ccc(-c4ccnc(C)c4)cc3)ncc21` (stereo not shown) [Example 5]: 14.
The result for `COc1cc(Nc2ncc3c(n2)N2CCCCCC2C(=O)N3C)ccc1-n1cnc(C)c1` (stereo not shown) [Example 2] reads 59.
For `CCN1C(=O)C2CCCCCN2c2nc(Nc3ccc(-n4cnc(C)c4)cc3OC)ncc21` (stereo not shown) [Example 5-7], the “Ratio Aβ(total)/Aβ42” value amounted to 3.
Take `CCc1nc(Nc2ccc(-n3cnc(C)c3)c(C#N)c2)nc2c1NC(=O)[C@@H]1C[C@@H](OC)CN21` [Example 16]: the “Ratio Aβ(total)/Aβ42” value was determined as 33.
Next, `Cc1cn(-c2ccc(Nc3nc(CC(C)C)c4c(n3)N3CCCC3C(=O)N4C)cc2C#N)cn1` (stereo not shown) [Example 35]: 71; `CCc1nc(Nc2ccc(-n3cnc(C)c3)c(OC)c2)nc2c1NC(=O)C1CCCN21` (stereo not shown) [Example 7]: 98; `Cc1cn(-c2ccc(Nc3ncc4c(n3)N3CCCC3C(=O)N4C)cc2F)cn1` (stereo not shown) [Example 12-3]: above 27.
The result for `CCc1nc(Nc2ccc(-n3cnc(C)c3)c(OC)c2)nc2c1NC(=O)[C@H]1[C@@H](c3ccc(F)cc3)CCN21` (racemic) [Example 22] reads 71; that for `CCc1nc(Nc2ccc(-n3cnc(C)c3)c(OC)c2)nc2c1N(C)C(=O)[C@@H]1C[C@@H](OC)CN21` [Example 14], 67.
Next, `CCN1C(=O)C2CCCCCN2c2nc(Nc3cnc(-n4cnc(C)c4)c(OC)c3)ncc21` (stereo not shown) [Example 5-4]: above 175.
In the case of `CCN1C(=O)C2CCCCCN2c2nc(Nc3ccc(-n4ccnc4)c(OC)c3)ncc21` (stereo not shown) [Example 5-2], the “Ratio Aβ(total)/Aβ42” value was 64.
Next, `CCc1nc(Nc2ccc(-n3cnc(C)c3)c(OC)c2)nc2c1N(C)C(=O)[C@H]1[C@H](c3ccc(F)cc3)CCN21` (racemic) [Example 23]: 90; `CCc1nc(Nc2ccc(-c3cnc(C)o3)c(OC)c2)nc2c1NC(=O)[C@@H]1C[C@@H](OC)CN21` [Example 19]: 82; `CCN1C(=O)C2CCCCCN2c2nc(Nc3ccc(-c4ccnc(C)c4)cc3)ncc21` (stereo not shown) [Example 3]: 17.
For `CCN1C(=O)C2CCCCCN2c2nc(Nc3ccc(-c4cnc(C)s4)c(OC)c3)ncc21` (stereo not shown) [Example 5-5], the “Ratio Aβ(total)/Aβ42” value turned out to be 13.

Values taken from patent US9006226B2, “Dihydropteridinones I” (Boehringer Ingelheim International GmbH, priority 2012, dated 2015).
